Entries after “also recorded” stand apart in the source; their conditions may differ. Where two headings read alike, the source gives them in different places. One block for each molecule: values may come before it.
Experiments:
arginase [1] = conditions: cited from earlier work
liver arginase = target: T1, liver arginase (Bos taurus, UniProt Q2KJ64); conditions: cited from earlier work; for activity toward arginase: concentrations up to 2 mM
T1 sequence (Q2KJ64 1-322): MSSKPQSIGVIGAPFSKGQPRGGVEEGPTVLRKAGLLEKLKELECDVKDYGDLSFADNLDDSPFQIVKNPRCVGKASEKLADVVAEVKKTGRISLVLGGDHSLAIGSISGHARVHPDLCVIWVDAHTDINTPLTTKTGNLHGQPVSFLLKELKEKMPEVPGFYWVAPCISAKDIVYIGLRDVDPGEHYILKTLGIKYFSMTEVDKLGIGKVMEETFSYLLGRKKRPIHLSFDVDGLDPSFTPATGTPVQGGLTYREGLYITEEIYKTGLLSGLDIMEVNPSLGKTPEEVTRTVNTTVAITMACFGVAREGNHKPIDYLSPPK

arginase [2] = target: T2, arginase (Homo sapiens, UniProt P05089); conditions: cited from earlier work; for Ki: competitive inhibitors of arginase
T2 sequence (P05089 1-322): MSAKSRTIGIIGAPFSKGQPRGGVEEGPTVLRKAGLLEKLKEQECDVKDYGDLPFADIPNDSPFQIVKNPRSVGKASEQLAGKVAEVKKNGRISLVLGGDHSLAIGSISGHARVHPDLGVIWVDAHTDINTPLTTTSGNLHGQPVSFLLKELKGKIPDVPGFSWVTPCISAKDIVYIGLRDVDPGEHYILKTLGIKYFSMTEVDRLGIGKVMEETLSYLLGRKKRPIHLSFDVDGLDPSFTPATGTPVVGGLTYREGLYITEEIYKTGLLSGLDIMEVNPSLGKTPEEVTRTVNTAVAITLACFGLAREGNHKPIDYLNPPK

rat liver arginase (RLA) = rat liver arginase (RLA) (Rattus norvegicus, UniProt P07824); conditions: cited from earlier work; for IC50: read-out: IC50 towards RLA
rat liver arginase (RLA), sequence (P07824 whole entry): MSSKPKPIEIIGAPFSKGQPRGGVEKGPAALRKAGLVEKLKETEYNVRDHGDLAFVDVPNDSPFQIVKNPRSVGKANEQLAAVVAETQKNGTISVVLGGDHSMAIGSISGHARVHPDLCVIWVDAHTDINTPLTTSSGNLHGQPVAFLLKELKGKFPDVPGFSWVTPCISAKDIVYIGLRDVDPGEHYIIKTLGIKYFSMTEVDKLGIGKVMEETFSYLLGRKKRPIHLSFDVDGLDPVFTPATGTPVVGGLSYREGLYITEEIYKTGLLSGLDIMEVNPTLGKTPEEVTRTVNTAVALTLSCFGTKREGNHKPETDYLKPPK

arginase [3] = conditions: cited from earlier work; remark: listed apart in the source
CAT2 = test: arginine uptake in RAW264.7 cells treated with LPS and IL-13; assay type: cell-based, murine; conditions: 20 mM lysine; Control and LPS/IL-13 treated RAW264.7 cells; 100 μM arginine, three minutes
Method: Briefly, RAW264.7 cells were exposed to media alone (Control) or CAT2-inducing conditions (LPS/IL-13) for 24 hours and were then evaluated for arginine transport over a three-minute period in a final arginine concentration of 100 μM.
RAW264.7 cells, at 1×10^6, were plated on 24-well tissue culture plates in 0.5 ml cDME. After adhering for 2 hours, 0.5 ml media containing LPS (Sigma) and/or rhIL13 (R&D Systems) was added for final concentrations of 1 μg/ml and 10 ng/ml, respectively. After 20 hours incubation at 37° C. in an atmosphere of 5% CO2 and 95% air, the cells were washed 3 times with Arg Wash Buffer #1 (140 mM choline chloride, 5 mM KCl, 0.9 mM CaCl2, 1 mM MgSO4, 5.6 mM glucose, and 25 mM HEPES, pH7.4), then an additional 4 times with Arg Transport Buffer (137 mM choline chloride, 5.4 mM KCl, 1.8 mM CaCl2, 1.2 mM MgSO4, 10 mM HEPES, adjusted to pH7.4). […] Non-saturable binding was quantitated by incubating a replicate well of each treatment with transport buffer containing […]. […] Protein quantitation was performed using a micro-BCA kit (Pierce) and 400 μl lysate suspended in 10 ml scintillation fluid, loaded into glass scintillation vials, and emissions counted for 1 minute. Specific Arginine Uptake was calculated as Saturable binding (CPM/mg protein 400 μM Arg)— Non-saturable binding (CPM/mg protein 5 mM Arg).

rat tracheal explants = test: carbachol-induced tracheal contraction; conditions: 100 mM lysine; preincubated 15 to 20 hours
Method: Briefly, rat tracheal explants were preincubated for 15 to 20 hours with either media or media containing 100 mM L-lysine. The trachea were then washed and contraction measured in a Krebs-Henseleit solution in the presence or absence of 100 mM L-lysine.
Rats between 8-10 weeks of age were used for this experiment. Trachea were rapidly excised and cleaned of adherent connective tissue. […] Composition (mM) of the medium included 0.1 nonessential amino acids, 4% FBS, 2.0 glutamine, 0.05β-mercaptoethanol, 100 U/ml penicillin/100 μg/ml streptomycin.
Trachea were supported longitudinally by a rod with a stainless steel pin into the base of a double-jacketed, glass organ bath filled with 15 ml of Krebs-Henseleit (K-H) solution (37° C.) of the following composition (mM): 118 NaCl; 4.7 KCl; 1.2 KH2PO4; 11.1 Dextrose; 1.2 MgSO4; 2.8 CaCl2; and 25 NaHCO3. The solution was continuously gassed with a 5% CO2 and 95% O2 mixture for the duration of each experiment. The upper support was attached by a loop of silk thread to a TSD125 force transducer. […]
At the end of each experiment, all trachea were blotted on a gauze pad and weighted. Tensions were calculated as milligram tensions per milligram weight (mg/mg) and expressed as an individual percentage (%) of 10^−5 M carbachol-evoked force of the trachea in the absence of the drugs. All values were expressed as Mean ± SE. […]

[4] = test system: RAW264.7 murine macrophage cells; test: urea production in RAW264.7 cells treated with LPS and IL-13; assay type: cell-based; conditions: 20 mM lysine; LPS/IL-13 treated RAW264.7; 400 μM arginine, 24 hour incubation
Method: Briefly, RAW264.7 macrophages exposed to media alone (Control) or CAT2-inducing conditions (LPS/IL-13) for 24 hours were then equilibrated for 2 hours in Arginine Transport Buffer. After a 24 hour incubation in the presence or absence of competing L-lysine in Arginine Transport Buffer containing a final arginine concentration of 400 μM, urea production was evaluated as described in Example 4. Urea production is expressed as μg of urea in the supernatant/mg of cell lysate protein.
RAW264.7 macrophages were stimulated in 24-well plates as for arginine transport studies (above). After 20 hours of stimulation, the cells were washed three times with Arg Wash Buffer #1 and then an additional four times with Arg Transport Buffer. […] Supernatants were clarified by centrifugation at 12,000 rpm for 10 minutes and 100 μl assayed for urea in triplicate using a UV absorbance kit method (R-Biopharma) following the manufacturer's instructions with the exception that it was performed at 1/10 scale in a 96-well assay plate with a total volume of 300 μl/well. Cells were lysed with 500 μl of 1.0% SDS in 10 mM HEPES, pH 7.4 and the protein quantitated using the Micro-BCA kit (Pierce). Urea production was expressed as μg urea/mg protein lysate.

[5] = target: IL-13 (murine, endogenous in OVA-challenged Balb/c mice) (mouse) (UniProt P20109); test: cell-based or functional assay
IL-13 (murine, endogenous in OVA-challenged Balb/c mice) (mouse), sequence (P20109 19-131 limits assumed): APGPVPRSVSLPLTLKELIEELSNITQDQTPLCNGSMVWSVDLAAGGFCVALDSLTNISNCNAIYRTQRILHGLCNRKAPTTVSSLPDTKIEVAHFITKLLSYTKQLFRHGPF

Molecule: N=C(NO)c1ccc(CC(N)C(=O)O)cc1 (racemic) [4-hydroxyamidino-D,L-phenylalanine]
inhibition of liver arginase and arginase in the alveolar macrophages (arginase [1]): inhibit

Molecule: NC(CCCCC(N)C(=O)O)=NO (racemic) [N omega-hydroxy-D,L-indospicine]
inhibition of liver arginase and arginase in the alveolar macrophages (arginase [1]): inhibit

Molecule: N=C(NO)NCCC[C@@H](N)C(=O)O [D-NOHA]
effect on arginase relative to L-NOHA (liver arginase): much less active

Molecule: O=C(O)CN(CCN(CC(=O)O)CC(=O)O)CC(=O)O [EDTA]
inhibition of arginase activity (arginase [2]): do not inhibit

Molecule: F [F^−, fluoride]
Ki (rat liver arginase (RLA); pH 7.4, uncompetitive towards L-Arg binding, reversible): 1300 µM
IC50 (rat liver arginase (RLA); pH 7): 1200 µM
IC50 (rat liver arginase (RLA); pH 10): 19000 µM

Molecule: NC(=O)NCCC[C@H](N)C(=O)O [L-Cit]
effect on arginase relative to L-NOHA (liver arginase): much weaker inhibitors
activity toward arginase (liver arginase): inactive

Molecule: N=C(NO)NCCC[C@H](N)C(=O)O [L-NOHA, N(omega)-Hydroxy-L-arginine]
IC50 (arginase [3]; murine macrophages (Buga et al.), read-out: IC50 arginase activity): 450 µM
IC50 (arginase [3]; read-out: IC50 hydrolysis of L-arginine to L-ornithine, unstimulated murine macrophages (Tenu et al.)): 400 µM
Ki (liver arginase; arginase): 150 µM

Molecule: NCCC[C@H](N)C(=O)O [L-omithine, L-ornithine]
Ki (arginase [2]): 2000 µM

Molecule: O=NO [NO2^−]
effect on arginase relative to L-NOHA (liver arginase): without effect

Molecule: O=[N+]([O-])O [NO3^−]
effect on arginase relative to L-NOHA (liver arginase): without effect

Molecule: [N]=O [NO, nitric oxide]
effect on arginase relative to L-NOHA (liver arginase): much weaker inhibitors

Molecule: OB(O)O [borate]
inhibition of arginase activity (arginase [2]): S-hyperbolic I-hyperbolic non-competitive inhibitor

Molecule: O=C(O)CC(O)(CC(=O)O)C(=O)O [citrate]
inhibition of arginase activity (arginase [2]): do not inhibit

Molecule: N=C(N)N [guanidinium chloride]
Ki (arginase [2]): 100000 µM

Molecule: NO [hydroxylamine]
activity toward arginase (liver arginase): inactive

Molecule: NC(=O)NO [hydroxyurea]
activity toward arginase (liver arginase): inactive

Molecule: NCCCC[C@H](N)C(=O)O [lysine]
arginine uptake / saturable arginine transport (CAT2): inhibited; also recorded: abolished all saturable arginine transport
carbachol-induced rat tracheal contraction (rat tracheal explants): inhibited
urea production [4]: inhibited

Molecule: NC(N)=O [urea]
activity toward arginase (liver arginase): inactive

inhibition of allergen-induced Arg1 mRNA expression in mouse lung (GeneChip, in vivo) [5]: 67%
Molecule: soluble IL-13 receptor fusion protein sIL-13Rα2-Fc (from UniProt O88786 22-334) (Fc fusion)

Source: patent publication US20040234517A1, “Compositions and methods for diagnosing and treating asthma or other allergic or inflammatory diseases” (WYETH, priority 2003, published 2004)
